Measurements as given in paper PMC10534582, “A Pharmacokinetic Study of Sixteen Major Bioactive Components of Jinshui-Huanxian Granules in Pulmonary Fibrosis Model and Control Rats Using Orbitrap Fusion Mass Spectrometry” (Molecules, 2023).
Like-named read-outs stand apart in the source and are kept apart here.

What was measured:
[1] = Pharmacokinetics of JHG components in control rats after intragastric administration of JHGs (plasma, Orbitrap Fusion MS); type: in vivo, Sprague Dawley (SD) rats; details: for AUC(0-inf) / AUC(0-t) / half-life / MRT last / MRT inf / Tmax / Cmax: male, rat, plasma, po; for MRT last: read-out: MRT(0-t); for MRT inf: read-out: MRT(0-∞); for Cmax: intragastric JHGs
Procedure: (§1) Healthy male Sprague Dawley (SD) rats of SPF grade (240 ± 20 g) were purchased from Sipeifu (Beijing, China) Biotechnology Co., Ltd. (Beijing, China), Certificate of Conformity No.: SCYK (Beijing, China) 2019-0015, Animal Quality Certificate No.: 110324220102348616. They were housed in the Animal Center of Henan University of Traditional Chinese Medicine, which passed the ethical audit, ethics number: DWLL202208003, breeding Co. 24 °C, relative humidity 50 ± 2%. The animals fasted for 12 h before the experiment and drank water freely. All feeding and experimental studies on experimental animals were in accordance with the regulations on the Management of Experimental Animals in Henan Province.
(§2) Twenty-four healthy male SD rats or PF model rats, weighing 240 ± 20 g, fasted for 12 h before the experiment and drank water freely. Both kinds of rats were randomly divided into four groups. Blank group: equal dose of water by intragastric, low dose; administration group: rats were given the equivalent human dose of JHGs by intragastric, i.e., 10.8 g of raw drug/kg/d (5.70 g/kg/d); medium-dose administration group: 2 times the human equivalent dose of JHGs by intragastric, i.e., 21.6 g of raw drug/kg/d (11.41 g/kg/d); high-dose administration group: 4 times the human equivalent dose of JHG, i.e., 43.2 g of raw drug/kg/d (22.81 g/kg/d). Blood was collected from the tail vein before and 0.083, 0.25, 0.5, 0.75, 1, 1.5, 2, 3, 4, 6, 8, 12, 18, and 24 h after dosing, respectively. A total of 0.5 mL was placed in a heparin sodium centrifuge tube. Whole blood was left for 30 min and then centrifuged in a low-temperature freezing centrifuge (4 °C, 3000 r/min) for 15 min. The upper layer of plasma was collected and stored in a refrigerator at −80 °C.
(§3) We added 50 μL of internal standard solution and 800 μL of methanol, shook for 15 min, then centrifuged at 12,000 r/min for 10 min, took the supernatant, dried in a centrifuge concentrator, added 50 μL of the initial mobile phase to the residue, dissolved, centrifuged, then separated the upper layer of the solution used as the test solution. A total of 5 μL test solution was taken into the sample for analysis. For each compound with a certain dosage, the same procedure is repeated six times in parallel. The concentration in plasma was calculated by the internal standard method.
(§4) Accucore C18 (100 mm × 2.1 mm, 2.6 μm) column at 25 °C, the mobile phase was methanol (A)-0.1% formic acid aqueous solution (B). The gradient elution program was 0–4 min (65% B-40% B), 4–5 min (40% B-40% B), 5–6 min (40% B-28% B), and 6–7 min (28% B-19% B), 7–7.5 min (19% B-10% B), 7.5–11 min (10% B-0% B), the flow rate was 0.2 mL/min, and the injection volume was 5 μL.
The ion source was an electrospray ionization source (ESI). Nitrogen acted as a carrier gas. The sheath gas pressure was 35 Arb. The auxiliary gas pressure was 7 Arb. The spray voltage was 3.50 kv(+), 2.50 kv(-). The ion transport tube temperature was regulated at 300 °C. Gasification temperature was 275 °C. The resolution was 50,000. The scanning mode was set as SIM mode. The optimized parameters obtained are in Table 5.
Under the established Orbitrap Fusion MS method, the pharmacokinetics of JHG in rats were studied to investigate the dynamic changes of the active components in rats. The pharmacokinetic parameters of each component in each dosing group were calculated by […] model analysis using Kinetica 5.1 (Innaphase, Waltham, MA, USA) pharmacokinetic analysis software. The pharmacotemporal curves were plotted by the plotting software. SPSS 19.0 (IBM, Armonk, NY, USA) was used to analyze all the parameters. Independent sample tests were performed after natural logarithmic transformation for AUC0–t, Cmax. The nonparametric Mann–Whitney test was applied for Tmax, t½, and MRT0–t. p < 0.05 was considered statistically significant.

[2] = Pharmacokinetics of JHG components in pulmonary fibrosis (PF) model rats after intragastric administration of JHGs (plasma, Orbitrap Fusion MS); type: in vivo, Sprague Dawley (SD) rats; details: for pharmacokinetic process (versus dosage) / Tmax: PF model rats; for pharmacokinetic process (versus dosage): low, medium, high doses of JHGs; for Tmax: male, Sprague-Dawley, rat, plasma, po, after administration of JHGs, read-out: Tmax of all dosages
Procedure: as §1
The PF model in rats was replicated by reference to the conclusion tracheal intubation method in the literature. After the rats were anesthetized, bleomycin (BLM) (5 mg/kg) was used as an induction agent and followed the tracheal intubation method. BLM solution was aspirated with a 1 mL syringe and injected into the indwelling syringe. A total of 0.3 mL of air was rapidly pushed into the syringe, the rats were immediately stroked upright so that the BLM solution was evenly distributed in both lungs. BLM was given on day 0 for modeling, then gavage was taken after day 28, with fasting without water for 12 h before sampling. The histopathological examination was performed to verify the construction of the PF model. The rats were anesthetized by the abdominal cavity, then the lung tissues were violently shocked by opening the chest, and the right lower lobe of the lung was taken and fixed in 4% formaldehyde solution, then dehydrated by sucrose gradient, paraffin-embedded, and sectioned. H&E and Masson staining were performed to observe the degree of alveolitis of lung tissue and the degree of pulmonary fibrosis, respectively. The inflammation and fibrosis of lung tissues was observed under the light microscope.
as §2, §3
as §4, with “μL. […]” for “μL.”

[3] = because of poor gastrointestinal absorption; cited from earlier work
[4] = Sprague Dawley, 5.7 g/kg/day, JHGs low dose 5.70 g/kg/d
[5] = Sprague Dawley, 5.7 g/kg/day, JHGs low dose 5.70 g/kg/d, read-out: Tmax
[6] = Sprague Dawley, 5.7 g/kg/day, low dose 5.70 g/kg/d, n=6 (1st of 3 stacked values)
[7] = Sprague Dawley, 11.41 g/kg/day, JHGs medium dose 11.41 g/kg/d
[8] = Sprague Dawley, 11.41 g/kg/day, JHGs medium dose 11.41 g/kg/d, read-out: Tmax
[9] = Sprague Dawley, 11.41 g/kg/day, medium dose 11.41 g/kg/d, n=6 (2nd of 3 stacked values)
[10] = Sprague Dawley, 22.81 g/kg/day, JHGs high dose 22.81 g/kg/d
[11] = Sprague Dawley, 22.81 g/kg/day, JHGs high dose 22.81 g/kg/d, read-out: Tmax
[12] = Sprague Dawley, 22.81 g/kg/day, high dose 22.81 g/kg/d, n=6 (3rd of 3 stacked values)

CC(C)=CCC[C@](C)(O[C@@H]1O[C@H](CO[C@@H]2OC[C@H](O)[C@H](O)[C@H]2O)[C@@H](O)[C@H](O)[C@H]1O)[C@H]1CC[C@]2(C)[C@@H]1[C@H](O)C[C@@H]1[C@@]3(C)CC[C@H](O[C@@H]4O[C@H](CO)[C@@H](O)[C@H](O)[C@H]4O[C@@H]4O[C@H](CO)[C@@H](O)[C@H](O)[C@H]4O)C(C)(C)[C@@H]3CC[C@]12C [Ginsenoside Rb2]
pharmacokinetic process (Cmax and AUCs versus dosage) ([1]; low, medium, high doses of JHGs): linear pharmacokinetic process
pharmacokinetic process (versus dosage) [2]: linear pharmacokinetic process
Tmax, PF model group compared with the control group ([2]; PF model vs control rats): slightly increased
reduction of Cmax in PF model group relative to control ([2]; PF model vs control rats): about 1/3
Cmax, PF model group compared with the control group ([2]; PF model vs control rats, medium dose selected for comparison): significantly decreased
AUCs, PF model group compared with the control group ([2]; PF model vs control rats, p < 0.05): significantly decreased
Tmax [2]: ≤ 2 h
bioavailability, oral administration [3]: low

CC1CCC2N(C1)CC1C3CC4C(CC(=O)C5CC(O)CCC54C)C3CCC1C2(C)O (stereo not drawn) [Peiminine]
Clearances ([1]; JHGs high dose 22.81 g/kg/d): 112 ± 30.2 mL/min/kg
Vss ([1]; JHGs high dose 22.81 g/kg/d): 67.52 ± 15.96 L
Clearances ([1]; JHGs low dose 5.70 g/kg/d): 46.2 ± 14 mL/min/kg
Vss ([1]; JHGs low dose 5.70 g/kg/d): 28.03 ± 8.27 L
Clearances ([1]; JHGs medium dose 11.41 g/kg/d): 61 ± 18.7 mL/min/kg
Vss ([1]; JHGs medium dose 11.41 g/kg/d): 40.68 ± 9.67 L
AUC(0-inf) [1, 4]: 31.9 ± 9.55 ng·h/mL
AUC(0-t) [1, 4]: 29.1 ± 8.48 ng·h/mL
half-life [1, 4]: 6.06 ± 0.22 h
MRT last [1, 4]: 8.01 ± 0.09 h
MRT inf [1, 4]: 10.2 ± 0.32 h
Tmax [1, 5]: 4.67 ± 1.15 h
Cmax [1, 6]: 2.91 ± 0.9 ng/mL
AUC(0-inf) [1, 7]: 43.9 ± 16.4 ng·h/mL
AUC(0-t) [1, 7]: 38.6 ± 13.2 ng·h/mL
half-life [1, 7]: 7.97 ± 0.84 h
MRT last [1, 7]: 8.23 ± 0.25 h
MRT inf [1, 7]: 11.3 ± 1.03 h
Tmax [1, 8]: 4 h
Cmax [1, 9]: 4.22 ± 1.27 ng/mL
AUC(0-inf) [1, 10]: 46.1 ± 13.7 ng·h/mL
AUC(0-t) [1, 10]: 42 ± 11.7 ng·h/mL
half-life [1, 10]: 6.82 ± 0.57 h
MRT last [1, 10]: 7.84 ± 0.1 h
MRT inf [1, 10]: 10.1 ± 0.42 h
Tmax [1, 11]: 3 h
Cmax [1, 12]: 5.31 ± 1.61 ng/mL
Tmax, PF model group compared with the control group ([2]; PF model vs control rats): decreased significantly

C[C@@H]1O[C@@H](OC[C@H]2O[C@@H](Oc3c(-c4ccc(O)c(O)c4)oc4cc(O)cc(O)c4c3=O)[C@H](O)[C@@H](O)[C@@H]2O)[C@H](O)[C@H](O)[C@H]1O [Rutin]
correlation between CL, AUCs (AUC(0–t), AUC (0–∞)), t½, and dose [1]: no correlation
Tmax ([1]; Sprague-Dawley, after administration of JHGs, read-out: Tmax of all dosages): ≤ 2 h
pharmacokinetic process (versus dosage) [2]: linear pharmacokinetic process
Tmax [2]: ≤ 2 h

COc1cc(O)c2c(c1)oc(=O)c1c3cc(O)c(O)cc3oc21 [Wedelolactone]
Clearances ([1]; JHGs high dose 22.81 g/kg/d): 0.1 ± 0 mL/min/kg
Vss ([1]; JHGs high dose 22.81 g/kg/d): 0.07 ± 0.01 L
Clearances ([1]; JHGs low dose 5.70 g/kg/d): 0.05 ± 0.017 mL/min/kg
Vss ([1]; JHGs low dose 5.70 g/kg/d): 0.04 ± 0 L
Clearances ([1]; JHGs medium dose 11.41 g/kg/d): 0.05 ± 0 mL/min/kg
Vss ([1]; JHGs medium dose 11.41 g/kg/d): 0.03 ± 0.01 L
AUC(0-inf) [1, 4]: 139 ± 45.6 ng·h/mL
AUC(0-t) [1, 4]: 110 ± 24.7 ng·h/mL
half-life [1, 4]: 10.7 ± 3.69 h
MRT last [1, 4]: 7.52 ± 0.34 h
MRT inf [1, 4]: 14 ± 3.66 h
Tmax [1, 5]: 2 h
Cmax [1, 6]: 18.6 ± 3.98 ng/mL
AUC(0-inf) [1, 7]: 276 ± 35.6 ng·h/mL
AUC(0-t) [1, 7]: 242 ± 32.4 ng·h/mL
half-life [1, 7]: 8.01 ± 1.33 h
MRT last [1, 7]: 8.23 ± 0.18 h
MRT inf [1, 7]: 11.6 ± 1.32 h
Tmax [1, 8]: 3.67 ± 0.58 h
Cmax [1, 9]: 27.8 ± 2.35 ng/mL
AUC(0-inf) [1, 10]: 262 ± 13.5 ng·h/mL
AUC(0-t) [1, 10]: 221 ± 17.2 ng·h/mL
half-life [1, 10]: 8.2 ± 0.63 h
MRT last [1, 10]: 7.5 ± 0.21 h
MRT inf [1, 10]: 12 ± 1.32 h
Tmax [1, 11]: 1.83 ± 0.29 h
Cmax [1, 12]: 35.4 ± 2.29 ng/mL
pharmacokinetic process (versus dosage) [2]: linear pharmacokinetic process
MRT(0–t), PF model group compared with the control group ([2]; PF model vs control rats): decreased
